System: patient with DM1 and suspected hyporeninemic hypoaldosteronism
Assay: Case report: fludrocortisone therapeutic test
Type: in vivo, human
Details: fludrocortisone 0.2 mg/day
Experimental: Case presentation: A person, diagnosed with type 1 diabetes mellitus (DM1) for 12 years, presented progressive of walking difficulties 5 years ago, associated with dizziness, weakness, and tachycardia at rest with hypotension. […] Neuropathy Disability Score (NDS) was carried out, presenting 10 out of 10 points, classified as severe impairment. Because of an extremely significant clinical condition, with no evidence of microvascular compromise, hyporeninemic hypoaldosteronism (HH) was investigated. […] Subsequently, the patient was exposed to the exogenous ACTH test, with the administration of ACTH 250mcg intravenous and dosages of serum cortisol and aldosterone at times 0‘, 30‘, 60‘. There was an elevation of serum cortisol to levels above the limit of normality (18 mcg/dL), discarding primary adrenal insufficiency, and aldosterone levels at the lower limit of normal (attached tables). Even tests without confirmation, the use of fludrocortisone 0.2 mg/day was started as a therapeutic test.

For `C[C@]12CCC(=O)C=C1CC[C@H]1[C@@H]3CC[C@](O)(C(=O)CO)[C@@]3(C)C[C@H](O)[C@@]12F` [fludrocortisone], the clinical course was “improvement of the blood pressure (BP) and dizziness”.

Reference: PMC5907308, “21st Brazilian Diabetes Society Congress” (Diabetology & Metabolic Syndrome, 2018)
